{
  "source": "patent US10028913B2",
  "about": "“Liposomal pharmaceutical preparation and method for manufacturing the same” (priority 2006, dated 2018)",
  "key": {"S180 solid tumor": {"tested_on": "S180 solid tumor", "test": "Treatment effects on S-180 sarcoma solid tumor", "assay_type": "in vivo, KM mice", "details": "21st day after inoculation", "experimental": "(§1) Ascitic tumor-bearing mice which were inoculated with S180 tumor cells 7 days ago were executed by decollation, and milky viscous ascitic fluid was extracted and diluted with RPMI 1640 medium. After dilution, the tumor cell number was adjusted to 2.5×10^6 cells/ml. […] After inoculation, the cells in the residual tumor cell suspension were counted under light microscope, and living tumor cells were greater than 95%. The number of inoculated mice was 80.\nThe mice were administered by intravenous injection.\nThe mice were bred normally after administration. Tumor diameters were measured by vernier caliper 3 times per week, and body weights were measured at the same time. Tumor volume (TV) was calculated with the following formula: V=½×a×b2, in which a and b represent length and width, respectively. The tumor volumes were calculated by using the measurement results. Mice were executed by decollation on the 21st day after inoculation, tumors were taken out and weighed. […] The experimental result was tested by t-test."}, "[1]": {"test": "Pharmacokinetics of PLM60 and FM in Kunming mice (plasma level of mitoxantrone)", "assay_type": "in vivo", "details": "2 mg/kg, tail vein", "experimental": "This example was conducted in male Kunming mice with a body weight of about 20 g. Different dose levels of mitoxantrone were injected through tail vein in mice. […] Plasma samples were taken at different time points. The methods for processing and detecting plasma samples were described in the document: Methods in enzymology, Vol: 391, p176-185."}, "[2]": {"test": "Tissue distribution in S-180 tumor-bearing mice", "assay_type": "in vivo", "details": "male, Kunming, mouse, intravenous, 4 mg/kg i.v.; for concentration at 1 h: t 1 h; for concentration at 4 h: t 4 h; for concentration at 8 h: t 8 h; for concentration at 24 h: t 24 h", "experimental": "There were obvious differences in tissue distribution between PLM60 and FM in tumor-bearing mice. Male Kunming mice having a body weight about 20 g were used in the present example. […] Drugs were injected through vein in mice when tumor grew to 0.4-0.7 g. After the administration of drugs, mice were executed at various time points and their tissues were taken out to determine the concentration of mitoxantrone. The tissues included hearts, livers, spleens, lungs, kidneys, intestines, bone marrow and tumors."}, "Kunming mice": {"tested_on": "Kunming mice", "test": "Acute toxicity comparison of PLM60 and FM to Kunming mice", "assay_type": "in vivo", "description": "Mice of groups 1-5 were administrated with different dose levels of FM, while mice of groups 6-10 were administrated with an equivalent dose level of liposomal drug. […] The dead animals were dissected and autopsied."}, "C57 mice": {"tested_on": "C57 mice", "test": "Toxicity comparison of liposome formulations with different sizes", "assay_type": "in vivo", "experimental": "The dose was 9 mg/kg. […] In mice of FM group, the body weight decreased over 30% and about 20% mice died."}, "L1210 ascitic tumor": {"tested_on": "L1210 ascitic tumor", "test": "Treatment effects of liposomal mitoxantrone with different size on L1210 ascitic tumor", "assay_type": "in vivo, BDF1 mice", "details": "4 mg/kg, 60 days observation", "description": "as §1, with “Ascitic tumor BDF1” for “Ascitic tumor-bearing”, “with L1210 ascitic” for “with S180”, “extracted under aseptic condition” for “extracted”, “diluted by” for “diluted with”, “95%.” for “95%. The number of inoculated mice was 80.”\nAfter administration, the mice were bred normally. Their body weights were measured 3 times per week, the death time of each mouse was observed and recorded, and survival time was calculated. Mean survival time (MST) and median survival time were employed to evaluate the survival time of each group. Experimental observation was kept for 60 days after the inoculation.\nThe experimental scheme and data process mode were the same as Example 19. […] The administration dosage for mice in each group was 4 mg/kg."}, "[3]": {"details": "two dissociable groups at physiological pH; cited from earlier work"}, "[4]": {"details": "heart, read-out: concentration of mitoxantrone in Heart"}, "[5]": {"details": "intestine, read-out: concentration of mitoxantrone in Intestine"}, "[6]": {"details": "kidney, read-out: concentration of mitoxantrone in Kidney"}, "[7]": {"details": "liver, read-out: concentration of mitoxantrone in Liver"}, "[8]": {"details": "lung, read-out: concentration of mitoxantrone in Lung"}, "[9]": {"details": "spleen, read-out: concentration of mitoxantrone in Spleen"}, "[10]": {"details": "tumor, read-out: concentration of mitoxantrone in Tumor"}},
  "note": "Several values for one entry are separate records, joined by “and”; a condition that tells them apart may be missing. Equal entries are not always repeated. Where two headings read alike, the source gives them in different places.",
  "data": [
    {"compound": "O=C1c2c(O)ccc(O)c2C(=O)c2c(NCCNCCO)ccc(NCCNCCO)c21", "note": "[FM, mitoxantrone]", "values": [
      {"measurement": "Weight of tumor", "setting": "S180 solid tumor; 4 mg/kg i.v.", "value": "2828.5 ± 1067.8", "unit": "mg"},
      {"measurement": "Ratio of tumor-inhibiting", "setting": "S180 solid tumor; 6 mg/kg i.v.", "value": 18.50, "unit": "%"},
      {"measurement": "Weight of tumor", "setting": "S180 solid tumor; 6 mg/kg i.v.", "value": "2293.3 ± 1720.0", "unit": "mg"},
      {"measurement": "AUMC 0-48", "setting": "[1]", "value": 0.103},
      {"measurement": "AUMC 0-∞", "setting": "[1]", "value": 0.135},
      {"measurement": "AUC(0-inf)", "setting": "[1]; male, Kunming, mouse, iv", "value": 199, "unit": "ng·h/mL"},
      {"measurement": "Cmax", "setting": "[1]; male, Kunming, mouse, iv", "value": 699, "unit": "ng/mL"},
      {"measurement": "Tmax", "setting": "[1]; male, Kunming, mouse, iv", "value": 4.98, "unit": "min"},
      {"measurement": "AUC(0-t)", "setting": "[1]; male, Kunming, mouse, iv, read-out: AUC 0-48", "value": 198, "unit": "ng·h/mL"},
      {"measurement": "MRT last", "setting": "[1]; male, Kunming, mouse, iv, read-out: MRT 0-48", "value": 31, "unit": "min"},
      {"measurement": "MRT inf", "setting": "[1]; male, Kunming, mouse, iv, read-out: MRT 0-∞", "value": 40.5, "unit": "min"},
      {"measurement": "concentration at 1 h", "setting": "[2]; bone marrow, read-out: concentration of mitoxantrone in Bone marrow", "value": 127, "unit": "ng/g"},
      {"measurement": "concentration at 1 h", "setting": "[2]; [4]", "value": 5380, "unit": "ng/g"},
      {"measurement": "concentration at 4 h", "setting": "[2]; [4]", "value": 3520, "unit": "ng/g"},
      {"measurement": "concentration at 8 h", "setting": "[2]; [4]", "value": 3200, "unit": "ng/g"},
      {"measurement": "concentration at 24 h", "setting": "[2]; [4]", "value": 2940, "unit": "ng/g"},
      {"measurement": "concentration at 1 h", "setting": "[2]; [5]", "value": 1530, "unit": "ng/g"},
      {"measurement": "concentration at 4 h", "setting": "[2]; [5]", "value": 2140, "unit": "ng/g"},
      {"measurement": "concentration at 8 h", "setting": "[2]; [5]", "value": 2550, "unit": "ng/g"},
      {"measurement": "concentration at 24 h", "setting": "[2]; [5]", "value": 3940, "unit": "ng/g"},
      {"measurement": "concentration at 1 h", "setting": "[2]; [6]", "value": 18200, "unit": "ng/g"},
      {"measurement": "concentration at 4 h", "setting": "[2]; [6]", "value": 17200, "unit": "ng/g"},
      {"measurement": "concentration at 8 h", "setting": "[2]; [6]", "value": 13400, "unit": "ng/g"},
      {"measurement": "concentration at 24 h", "setting": "[2]; [6]", "value": 7460, "unit": "ng/g"},
      {"measurement": "concentration at 1 h", "setting": "[2]; [7]", "value": 4770, "unit": "ng/g"},
      {"measurement": "concentration at 4 h", "setting": "[2]; [7]", "value": 3560, "unit": "ng/g"},
      {"measurement": "concentration at 8 h", "setting": "[2]; [7]", "value": 2660, "unit": "ng/g"},
      {"measurement": "concentration at 24 h", "setting": "[2]; [7]", "value": 1940, "unit": "ng/g"},
      {"measurement": "concentration at 1 h", "setting": "[2]; [8]", "value": 10200, "unit": "ng/g"},
      {"measurement": "concentration at 4 h", "setting": "[2]; [8]", "value": 8020, "unit": "ng/g"},
      {"measurement": "concentration at 8 h", "setting": "[2]; [8]", "value": 7020, "unit": "ng/g"},
      {"measurement": "concentration at 24 h", "setting": "[2]; [8]", "value": 8080, "unit": "ng/g"},
      {"measurement": "concentration at 1 h", "setting": "[2]; [9]", "value": 4040, "unit": "ng/g"},
      {"measurement": "concentration at 4 h", "setting": "[2]; [9]", "value": 4460, "unit": "ng/g"},
      {"measurement": "concentration at 8 h", "setting": "[2]; [9]", "value": 3770, "unit": "ng/g"},
      {"measurement": "concentration at 24 h", "setting": "[2]; [9]", "value": 7750, "unit": "ng/g"},
      {"measurement": "concentration at 1 h", "setting": "[2]; [10]", "value": 61.4, "unit": "ng/g"},
      {"measurement": "concentration at 4 h", "setting": "[2]; [10]", "value": 13.3, "unit": "ng/g"},
      {"measurement": "Survival time of mice (male / female), individual animals", "setting": "Kunming mice; dose 12 mg/kg", "value": "18 day (4×) and 13 day (3×)"},
      {"measurement": "Survival time of mice (male / female), individual animals", "setting": "Kunming mice; dose 20 mg/kg", "value": "7 day (4×) and 8 day (3×)"},
      {"measurement": "mice died", "setting": "C57 mice; male C57 mice, FM group", "value": "about 20%"},
      {"measurement": "body weight decrease", "setting": "C57 mice; mouse, in vivo", "value": "over 30%"},
      {"measurement": "Mean survival time", "setting": "L1210 ascitic tumor", "value": "38.67 ± 3.54"},
      {"measurement": "Median survival time", "setting": "L1210 ascitic tumor", "value": "36.00 ± 6.06"},
      {"measurement": "Survival rate", "setting": "L1210 ascitic tumor", "value": 33.33, "unit": "%"},
      {"measurement": "pKa", "setting": "[3]", "value": 8.15}
    ]}
  ]
}
